From patent US8084461B2 (Dey, L.P., priority 2001, dated 2011)
Where a name gives a salt, the structure may show the parent alone.

Columns and labels:
patients with COPD [1] = test: Double-blind, randomized, positive control trial: treatment-emergent adverse events (safety/tolerability); settings: percent of patients; for (%) Patients with A (adverse events): any adverse event
Experimental: (§1) To evaluate the efficacy and safety of the inhalation solution of the present invention, a double-blind, randomized, positive control trial was performed.
(§2) All study medications were administered 4 times per day (ideally every 6 hours) by inhalation using a PARI LC PLUS™ nebulizer and PARI PRONEB® compressor. Concomitant use of bronchodilators was restricted during the trial. Oral and inhaled steroic use was permitted throughout the trial, provided that dosing remained constant.

patients with COPD [2] = test: Double-blind, randomized, positive control trial: FEV1 response (efficacy); assay type: in vivo, human; settings: Crossover phase, nebulized 4 times per day
Experimental: as §1, §2

SMILES | Bronchitis (RESPIRATORY), % (patients with COPD [1]) | Cramps leg (MUSCULO-SKELETAL), % (patients with COPD [1]) | Diarrhea (DIGESTIVE), % (patients with COPD [1]) | Dyspepsia (DIGESTIVE), % (patients with COPD [1]) | Infection urinary tract (UROGENITAL), % (patients with COPD [1]) | Lung Disease (RESPIRATORY), % (patients with COPD [1]) | Nausea (DIGESTIVE), % (patients with COPD [1]) | Pain (BODY AS A WHOLE), % (patients with COPD [1]) | Pain chest (BODY AS A WHOLE), % (patients with COPD [1]) | Pharyngitis (RESPIRATORY), % (patients with COPD [1]) | Pneumonia (RESPIRATORY), % (patients with COPD [1]) | (%) Patients with A (adverse events) (patients with COPD [1]) | Peak FEV1 mean (change from pre-dose to peak FEV1 within 3 hours after dosing) (patients with COPD [2]; Combination vs. Ipratropium comparison) [L] | Peak FEV1 mean (change from pre-dose to peak FEV1 within 3 hours after dosing) (patients with COPD [2]; Combination vs. Albuterol comparison) [L]
CC(C)[N+]1(C)C2CCC1CC(OC(=O)C(CO)c1ccccc1)C2 (racemic) [Ipratropium, 8-azoniabicyclo [3.2.1]-octane, 3-(3, hydroxyl-1-oxo-2-phenylpropoxy)-8methyl-8-(1-methylethyl)-bromide, monohydrate, (endo, syn)-, (±)-] | (1.7) % | (0.8) % | (1.2) % | (1.1) % | (1.2) % | (4.5) % | (0.8) % | (0.5) % | (1.9) % | (3.6) % | (1.1) % | (43.6) % | 0.282 | 
CC(C)(C)NCC(O)c1ccc(O)c(CO)c1 (stereo not drawn) [Albuterol, α^1-[(tert-butylamino)methyl]-4-hydroxy-m-xylene-α,α′-diol sulfate (2:1)(salt)] | (1.4) % | (1.1) % | (0.7) % | (0.9) % | (0.4) % | (4.7) % | (0.9) % | (1.1) % | (1.4) % | (3.5) % | (0.9) % | (43.0) % |  | 0.313
